The subject of test [1] is pS6 (Ser240/244) in MEF TSC1−/− cells (mTORC1 signaling). Description: Cell-based assay for rapalog potency (pS6 in MEF TSC1-/- cells). The settings on record: 2 hours treatment, average from multiple assays. More on the design: species or system Mouse.
Description: Cell-based assay for rapalog potency determination. Rapalog potency was determined using MEF TSC1−/− cell based assay. […] This cell-based assay is used to measure inhibition (de-phosphorylation) of S6 and 4EBP1 by rapalogs or other mTOR inhibitors.
MEF TSC1−/− cells were plated on Poly-D-lysine coated 384 well Griener clear bottom plates and incubated overnight at 37° C., 5% CO2. […] Nuclei were visualized with Hoechst (ThermoFisher Scientific #H3570) staining. Cells were imaged (InCell 600) using respective fluorescence channels and the potency of mTOR inhibitors was defined by pS6 IC50 (nM).
For test [2], the target named is T1, FKBP12 (Homo sapiens, UniProt P62942).
T1 construct: made in house; host or cells: E. coli
Description: SPR assay, binding affinity to FKBP12. The settings on record: single-cycle kinetics, immobilized avi-his6 FKBP12. Here is the method:
(§1) SPR assay to determine binding affinity to FK506-binding proteins (FKBP). […] Each protein was subsequently immobilized on a streptavidin chip in a Biacore 8K SPR instrument (GE Healthcare). Using single-cycle kinetics, compound titrations were flowed at 45 uL/min over each surface using 2-minute association and 30-minute dissociation phases in a buffer containing 50 mM Tris pH 7.5/150 mM NaCl/0.01% Tween 20/1 mM DTT/2% DMSO. The data were fit using low molecular weight (LMW) single-cycle kinetics. The equilibrium dissociation constants (KD) are reported. The equilibrium dissociation constants (KD) to FKBP12, FKBP51, and FKBP52 are listed in Table 2 for the compound of the disclosure.

Test [3] addresses FKBP12.6 (Homo sapiens, UniProt P68106). Description: SPR assay, binding affinity to FKBP12.6. Particulars: single-cycle kinetics. As for the experimental part: as §1
In test [4] the target is T2, FKBP25 (Homo sapiens, UniProt Q00688).
T2 sequence (Q00688 1-224): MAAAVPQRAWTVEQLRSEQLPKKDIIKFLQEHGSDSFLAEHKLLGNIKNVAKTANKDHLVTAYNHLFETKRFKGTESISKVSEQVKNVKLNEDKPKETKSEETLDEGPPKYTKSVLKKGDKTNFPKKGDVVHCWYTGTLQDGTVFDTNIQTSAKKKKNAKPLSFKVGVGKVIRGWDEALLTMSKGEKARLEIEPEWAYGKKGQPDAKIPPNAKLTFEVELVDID
The test is described as follows: SPR assay, binding affinity to FKBP25. The settings on record: single-cycle kinetics. Here is the method:
as §1
(SPR reads the build-up and loss of mass on a sensor chip optically.)

Test [5] concerns the target T3, FKBP51 (Homo sapiens, UniProt Q13451).
T3 construct: made in house; host or cells: E. coli
T3 sequence (Q13451 1-457): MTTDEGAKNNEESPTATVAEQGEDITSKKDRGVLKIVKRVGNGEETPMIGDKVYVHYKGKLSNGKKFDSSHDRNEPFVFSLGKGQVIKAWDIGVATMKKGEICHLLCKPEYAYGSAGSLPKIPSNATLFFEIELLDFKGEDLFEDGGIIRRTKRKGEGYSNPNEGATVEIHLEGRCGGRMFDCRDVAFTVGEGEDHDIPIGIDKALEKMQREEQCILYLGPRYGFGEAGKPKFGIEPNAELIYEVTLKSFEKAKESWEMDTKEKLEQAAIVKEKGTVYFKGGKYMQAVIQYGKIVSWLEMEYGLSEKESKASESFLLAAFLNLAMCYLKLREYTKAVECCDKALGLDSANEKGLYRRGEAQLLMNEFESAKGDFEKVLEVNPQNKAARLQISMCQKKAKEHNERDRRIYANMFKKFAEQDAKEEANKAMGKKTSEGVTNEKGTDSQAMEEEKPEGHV
The test is described as follows: SPR assay, binding affinity to FKBP51. Particulars: single-cycle kinetics, immobilized avi-his6 FKBP51. Here is the method:
as §1

In test [6] the target is T4, FKBP52 (Homo sapiens, UniProt Q02790).
T4 construct: made in house; host or cells: E. coli
T4 sequence (Q02790 1-459): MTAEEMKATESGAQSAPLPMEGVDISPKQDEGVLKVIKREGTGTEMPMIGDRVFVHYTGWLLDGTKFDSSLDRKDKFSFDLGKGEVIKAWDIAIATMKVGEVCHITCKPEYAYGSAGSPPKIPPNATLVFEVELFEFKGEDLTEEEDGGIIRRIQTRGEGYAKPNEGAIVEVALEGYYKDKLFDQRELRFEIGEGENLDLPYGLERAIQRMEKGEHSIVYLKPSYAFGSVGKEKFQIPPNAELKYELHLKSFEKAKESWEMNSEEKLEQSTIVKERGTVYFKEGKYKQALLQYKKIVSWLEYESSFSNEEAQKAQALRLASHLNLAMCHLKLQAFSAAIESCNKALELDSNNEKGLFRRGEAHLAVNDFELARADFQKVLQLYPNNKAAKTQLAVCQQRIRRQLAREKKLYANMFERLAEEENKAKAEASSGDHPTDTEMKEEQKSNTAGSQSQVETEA
Description: SPR assay, binding affinity to FKBP52. The settings on record: single-cycle kinetics, immobilized avi-his6 FKBP52. As for the experimental part: as §1

Test [7] has as its system S6K1(Thr389) phosphorylation (mTORC1 activity) in FKBP12 knock-out 293T cells. The test is described as follows: pS6K1(Thr389) sandwich ELISA in FKBP12 knock-out 293T cells. The test is classed as cell-based. The settings on record: 2 hours, dose range 1000 nM to 0.0033 nM, relative to DMSO media (FIG. 1B). As for the experimental part: Cells were treated in triplicate. The Y axis represents percent inhibition of pS6K1(Thr389) relative to the level in cells treated with rapalog free media (media plus DMSO).
Generation of FKPB12 knock-out 293T cells.
WT and FKBP12 knock-out 293T cells were plated at a density of 30,000 cells per well in poly-D-Lysine coated 96-well plates (Corning, #354461) in Dulbecco's modified Eagle's medium (ThermoFisher, #11995-065) supplemented with 10% fetal bovine serum (ThermoFisher, #16140-071). Cells were incubated at 37° C., 5% CO2 for 48 hours until they reached ˜80% confluence. […] Media supplemented with blank Dimethyl sulfoxide (DMSO) was used as a control for both compounds. Phosphorylated amounts of S6K1 (Thr389) were detected by a sandwich ELISA kit (Cell signaling, #7063C) following the manufacture's protocol.
S6K1 is a downstream target of mTORC1 and phosphorylation of its rapalog-sensitive Thr389 site is used as a functional readout of mTORC1 activity (Lee, C. H., Inoki, K. and Guan, K. L. (2007). mTOR pathway as a target in tissue hypertrophy. Annu. Rev. Pharmacol. Toxicol. 47, 443-467).
In general terms: An ELISA detects its analyte on a solid surface through an enzyme-linked reagent.

Molecules are shown by their SMILES.

The text below walks through data of US12648936B2 (NOVARTIS AG, priority 2019, dated 2026).

For orientation: IC50 means the concentration needed to halve the response being measured. Low readings indicate greater potency, high ones weaker potency. For orientation: Kd means the concentration at which binding is half-saturated.

T1 sequence (P62942 whole entry): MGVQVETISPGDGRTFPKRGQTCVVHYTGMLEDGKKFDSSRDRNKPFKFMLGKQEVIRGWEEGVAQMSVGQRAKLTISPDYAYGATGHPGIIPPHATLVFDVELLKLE
Chain of FKBP12.6 (P68106 whole entry, species assumed): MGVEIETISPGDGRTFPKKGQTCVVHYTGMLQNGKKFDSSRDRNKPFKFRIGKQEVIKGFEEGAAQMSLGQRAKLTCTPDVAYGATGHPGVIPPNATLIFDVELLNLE

In the case of `CO[C@@H]1C[C@H](C[C@@H](C)[C@@H]2CC(=O)[C@H](C)/C=C(\C)[C@@H](O)[C@@H](OC)C(=O)[C@H](C)C[C@H](C)/C=C/C=C/C=C(\C)C(N3CCCS3(=O)=O)C[C@@H]3CC[C@@H](C)[C@@](O)(O3)C(=O)C(=O)N3CCCC[C@H]3C(=O)O2)CC[C@H]1OCCO` (single isomer, unassigned) [Compound 2], in test [1], the 50% inhibitory concentration (IC50) came out at 22.5 nM.
Regarding `CO[C@H]1C[C@@H]2CC[C@@H](C)[C@@](O)(O2)C(=O)C(=O)N2CCCC[C@H]2C(=O)O[C@H]([C@H](C)C[C@@H]2CC[C@@H](O)[C@H](OC)C2)CC(=O)[C@H](C)/C=C(\C)[C@@H](O)[C@@H](OC)C(=O)[C@H](C)C[C@H](C)/C=C/C=C/C=C/1C` [Rapamycin, reference compound], in test [1] (Mus musculus, 2 h), half-maximal inhibition (IC50) was put at 0.05 nM.
`CO[C@@H]1C[C@H](C[C@@H](C)[C@@H]2CC(=O)[C@H](C)/C=C(\C)[C@@H](O)[C@@H](OC)C(=O)[C@H](C)C[C@H](C)/C=C/C=C/C=C(\C)C(N3CCCS3(=O)=O)C[C@@H]3CC[C@@H](C)[C@@](O)(O3)C(=O)C(=O)N3CCCC[C@H]3C(=O)O2)CC[C@H]1O` (stereo partly drawn) [Compound 1]: in test [1] (Mus musculus, 2 h), the IC50 is 1.36 nM. Moreover, the Kd in test [2] came out at 6.4 nM; in test [3], 56 nM; in test [4], 28.9 µM; in test [5], 2040 nM; in test [6], 3550 nM. Further, the “inhibition of S6K1(Thr389) phosphorylation” value in test [7] is listed as “no longer inhibited”.
As for `CO[C@@H]1C[C@H](C[C@@H](C)[C@@H]2CC(=O)[C@H](C)/C=C(\C)[C@@H](O)[C@@H](OC)C(=O)[C@H](C)C[C@H](C)/C=C/C=C/C=C(\C)C(N3CCCCS3(=O)=O)C[C@@H]3CC[C@@H](C)[C@@](O)(O3)C(=O)C(=O)N3CCCC[C@H]3C(=O)O2)CC[C@H]1O` (stereo partly drawn) [Compound 4], the IC50 in test [1] (Mus musculus, 2 h) is 3.4 nM. For the same compound, the equilibrium dissociation constant (Kd) in test [2] is 10.9 nM; in test [5], 2580 nM; in test [6] it was 2580 nM.
In turn, `CO[C@@H]1C[C@H](C[C@@H](C)[C@@H]2CC(=O)[C@H](C)/C=C(\C)[C@@H](O)[C@@H](OC)C(=O)[C@H](C)C[C@H](C)/C=C/C=C/C=C(\C)C(N3CCCS3(=O)=O)C[C@@H]3CC[C@@H](C)[C@@](O)(O3)C(=O)C(=O)N3CCCC[C@H]3C(=O)O2)CC[C@H]1OCCO` (single isomer, unassigned) [Compound 3] yielded a half-inhibitory concentration (IC50) in test [1] of 8.3 nM.
In turn, `CO[C@H]1C[C@@H]2CC[C@@H](C)[C@@](O)(O2)C(=O)C(=O)N2CCCC[C@H]2C(=O)O[C@H]([C@H](C)C[C@@H]2CC[C@@H](OCCO)[C@H](OC)C2)CC(=O)[C@H](C)/C=C(\C)[C@@H](O)[C@@H](OC)C(=O)[C@H](C)C[C@H](C)/C=C/C=C/C=C/1C` [RAD001, everolimus, reference compound] yielded an IC50 in test [1] (Mus musculus, 2 h) of 0.05 nM. Moreover, the Kd was 288 nM in test [2]; 12 nM in test [3]; 0.025 µM in test [4]; 396 nM in test [5]; 676 nM in test [6]. For the same compound, in test [7], the “inhibition of S6K1(Thr389) phosphorylation” value is approximately 50%.
